Measured values as given in patent US9449726B2, “100Mo compounds as accelerator targets for production of 99mTc” (Washington University, priority 2013, dated 2016).
“Also recorded” adds a separate entry of the source.

System: normal CD1 mice
Assay: SPECT/CT imaging of ^99mTc-MDP in small animals
Type: in vivo
Procedure: Preparation of ^99mTc-methylene diphosphonate (^99mTc-MDP) and Animal Imaging Studies. All animal studies were approved by the Animal Studies Committee at Washington University. ^99mTc-MDP was prepared using commercially available kits. 3.9 mg of a sterile lyophilized powder containing methylene diphosphonate as the main constituent, under the trade name MDP-BRACCO™ (Bracco Diagnostics Inc., Princeton, N.J.) was dissolved in 135 μL saline solution. From this solution 10 μL was pipetted and added to the 400 μL of 1.6×10^8Bq (4.3 mCi)^99mTcO4^− containing saline solution. Radio-ITLC was performed on this solution as described above. 100 μL of the prepared radiopharmaceutical with an activity of 2.0×10^7 Bq (0.55 mCi) was injected into one month old normal CD1 mice via tail vein followed by small animal SPECT/CT imaging (nanoSPECT, Bioscan, Washington D.C.). CT scans were performed using a tube voltage of 45 kV and a scan time of 1.5 seconds per projection while the animals were anesthetized by isofluorane. SPECT data were collected by monitoring in as helical scan at 45 projections and 60 seconds per projection using a 9-pinhole low energy collimator. SPECT images were collected for 45 minutes at 1.5, 3 and 4 hours post injection. The CT and SPECT images were reconstructed and colocalized using InVivoScope (inviCRO, LLC, Boston Mass.) and HiSPECT (Bioscan, Washington, D.C.).
In these experiments, activities of 2.0×10^7Bq of ^99mTc were injected into each mouse. Scan times of 45 minutes were employed in imaging while each mouse was anesthetized with isoflurane. FIG. 5 illustrates SPECT images of mice imaged at (a) 1.5 hours (b) 3 hours and (c) 4 hours post injection.

Structure (SMILES): O.O.O=P([O-])([O-])CP(=O)([O-])[O-].[99Tc+4] [^99mTc-MDP, ^99mTc-methylene diphosphonate]
- SPECT images: uniformity of uptake in the backbone (CD1 mice, tail vein): relatively uniform
- SPECT images: activity at the earliest time point (CD1 mice, tail vein, 1.5 hours post injection (FIG. 5A)): activity in the kidneys and bladder as expected; also recorded: activity was seen in the excretory organs as shown in FIG. 5A, namely the kidneys and bladder
- SPECT images: change of activity as time progressed (CD1 mice, tail vein, 3 hours and 4 hours post injection (FIGS. 5B and 5C)): clearance of radioactivity from these organs and increased accumulation in the bones and joints
- SPECT images: regional uptake in the skeleton (CD1 mice, tail vein, backbone and joints): high activity uptake in the cervical, thoracic and lumbar regions of the backbone and major joints
- SPECT images: tissue uptake of ^99mTc (one month old normal CD1 mice, tail vein injection, 2.0×10^7 Bq (0.55 mCi), imaged 1.5, 3 and 4 hours post injection): accumulation of ^99mTc in the bones and joints; also recorded: uptake of the ^99mTc in the bones as expected
